Test results as given in patent US20080213817A1, “Enhancement of Th2-Dependent and Inflammatory Response” (priority 2004, published 2008).

Assays:
Format in all cases: cell-based, mice
[1] = tested on: WT thymocytes; test: Thymocyte proliferation, [3H] thymidine incorporation; conditions: WT thymocytes
Method: For proliferation assays, purified thymocytes or CD4^+ or CD8^+ splenic T cells (2×10^5 cells/well) were cultured in round bottom 96-well plates (Costar) precoated with anti-CD3 antibody (BD Pharmingen) in the absence or presence of soluble anti-CD28 antibody (BD Pharmingen). After 3 days, cultures were pulsed for 6 hrs with 1 μCi [^3H] thymidine (New England Nuclear) per well and cells were harvested. [^3H] thymidine incorporation was measured by scintillation counting. When indicated, either recombinant IL-4 or neutralizing anti-IL-4 antibody (R&D Systems) were added prior to [^3H] thymidine labeling.
For proliferation assays, purified thymocytes (2×10^5 cells/well) were cultured in round bottom 96-well plates (Costar) precoated with anti-CD3 antibody (BD Pharmingen) in the absence or presence of soluble anti-CD28 antibody (BD Pharmingen). […] [^3H] thymidine incorporation was measured by scintillation counting. […]
The effect of the Mekk1^KD mutation on activation of JNK and other MAPKs in response to TCR and CD28 engagement was investigated. • A. WT and Mekk1^KD thymocytes were incubated with anti-CD3 (10 μg/ml) and anti-CD28 (1 μg/ml). At the indicated times, JNK activity was measured by an immunecomplex kinase assay using GST-c-Jun(1-79) as the substrate. Phosphorylated c-Jun was detected by autoradiography and quantitated using a PhosphorImager. […] Cell proliferation was measured as above. […]

[2] = tested on: Itch; test: Immunoblotting of Itch level in activated thymocytes; conditions: activated WT thymocytes
Method: JNK1 was immunoprecipitated from 30 μg cell lysate with anti-JNK1 antibody (333, PharMingen) and its kinase activity measured by an immunecomplex kinase assay with GST-c-Jun(1-79) as a substrate (Xia et al. (2000) Proc Natl Acad Sci USA 97, 5243-5248). c-Jun phosphorylation was quantitated using a PhosphoImager (Bio-Rad) and gel loading was normalized by immunoblotting with a monoclonal antibody against JNK1/2 (666, PharMingen). ERK activation was examined by immunoblotting of gel separated whole cell extracts (100 μg) with an antibody specific for phospho-ERK (Cell Signaling). Polyclonal antibody against MEKK1 was prepared as described (Gallagher et al. (2002) J Biol Chem 277, 45785-45792). Antibodies against c-Jun, JunB, GATA3, c-Maf, NFATc1, NFATc2, p16, and p65 (RelA) were all from Santa Cruz Biotechnology. […] The levels of various proteins were quantitated by BioRad Quantity One software.
(§1) The levels of Itch and actin were examined was measured by immunoblotting. […] Cells were chased with nonradioactive amino acids for the indicated times, at which they were lysed and Itch expression levels were determined by radioimmunoprecipitation. The levels of [^35S]-labeled Itch were quantitated using a PhosphoImager. […] JNK activity was measured by an immunecomplex kinase assay. Phosphorylated c-Jun was detected by autoradiography and quantitated using a PhosphoImager. […]

[3] = tested on: c-Jun and JunB; test: Immunoblotting of Jun protein levels in activated T cells
Method: JNK1 was immunoprecipitated from 30 μg cell lysate with anti-JNK1 antibody (333, PharMingen) and its kinase activity measured by an immunecomplex kinase assay with GST-c-Jun(1-79) as a substrate (Xia et al. (2000) Proc Natl Acad Sci USA 97, 5243-5248). c-Jun phosphorylation was quantitated using a PhosphoImager (Bio-Rad) and gel loading was normalized by immunoblotting with a monoclonal antibody against JNK1/2 (666, PharMingen). ERK activation was examined by immunoblotting of gel separated whole cell extracts (100 μg) with an antibody specific for phospho-ERK (Cell Signaling). Polyclonal antibody against MEKK1 was prepared as described (Gallagher et al. (2002) J Biol Chem 277, 45785-45792). Antibodies against c-Jun, JunB, GATA3, c-Maf, NFATc1, NFATc2, p16, and p65 (RelA) were all from Santa Cruz Biotechnology. Polyclonal antibody against Itch was prepared as described (Qiu et al. (2000) J Biol Chem 275, 35734-35737). The levels of various proteins were quantitated by BioRad Quantity One software.
as §1
Inactivation of MEKK1 or JNK Slows Down JunB and c-Jun Turnover • A. Thymocytes and CD4^+ T cells from WT and Mekk1^ΔKD were stimulated with anti-CD3+anti-CD28 for 24 hrs. Cell extracts were prepared and the levels of various transcription factors were measured by immunoblotting. The relative levels of the different proteins determined by densitometry are indicated. […] The mRNA levels of Jun family members and c-Fos were measured by RNase protection. […] Cell lysates were prepared and immunoprecipitated with various antibodies as indicated, separated by SDS-PAGE and analyzed by autoradiography. […]

| Compound | effect on [3H] thymidine incorporation (in words) ([1]; anti-CD3+anti-CD28) | effect on Itch expression (in words) [2] | c-Jun and JunB expression (in words) ([3]; WT CD4^+ T cells stimulated with anti-CD3 and anti-CD28, 24 hours) | effect on c-Jun and JunB expression (in words) ([3]; activated WT thymocytes) | increase in [3H] thymidine incorporation ([1]; different concentrations of anti-CD3+anti-CD28, increasing amounts of inhibitor, 72 hrs) | decrease in Itch expression ([2]; 24 hrs, 0.5 μM) [fold] | increase in c-Jun and JunB expression ([3]; activated WT thymocytes (anti-CD3+anti-CD28), 24 hrs, SP600125 0.5 μM, JNKI-1 25 μM) [fold] |
| --- | --- | --- | --- | --- | --- | --- | --- |
| Oc1ccc(-c2nc(-c3ccncc3)c(-c3ccc(F)cc3)[nH]2)cc1 [SB202190] | did not produce such an effect | Negligible such effects | No such effects | Negligible such effects | – | – | – |
| Oc1c2ccccc2c2c3c(cccc13)N=N2 [SP600125] | – | – | – | – | at least 2 fold | 2 | 4 |
